Results from patent US10975029B2, “Crystalline eravacycline bis-hydrochloride” (Sandoz AG, priority 2016, dated 2021).
Where a name gives a salt, the structure may show the parent alone.

Columns and labels:
Assay type in all cases: physicochemical
[1] = Gravimetric moisture sorption isotherm, 0% to 95% RH, with pictures to detect visual changes (deliquescence); settings: for relative humidity at which the solid liquefies (deliquescence): measured at 25.0±0.1° C., dihydrochloride
Experimental: Moisture sorption isotherms were recorded with an SPSx-1μ moisture sorption analyzer (proUmid, Ulm). The measurement cycle was started at ambient relative humidity (RH) of 25% and first decreased in 5% steps to 5% RH, in one step to 3% RH in a further step to 0% RH. Then RH was increased from 0% to 95% in 5% steps. The time per step was set to a minimum of 2 hours and a maximum of 6 hours. If an equilibrium condition with a constant mass of +0.01% within 1 hour was reached before the maximum time for all examined samples, the sequential humidity step was applied before the maximum time of 6 hours. If no equilibrium was achieved, the consecutive humidity step was applied after the maximum time of 6 hours. The temperature was 25±0.1° C. At the beginning of the GMS experiment, as well as at the end of each RH-step a picture was taken of each sample in order to detect visual changes in the samples. Pictures were taken with a 2046×2046 pixel CMOS image sensor attached to a 35 mm/F 1.4 lens, which was directly connected to the cover plate of moisture sorption analyzer.

[2] = Comparative Example 1: gravimetric moisture sorption/desorption experiment, 0 to 80% RH; settings: 25° C.; for hysteresis between the sorption and the desorption curve: 0 to 80% RH; for hysteresis between the sorption and the desorption curve / mass increase during the sorption cycle from 0 to 80% RH: dihydrochloride; for mass increase during the sorption cycle from 0 to 80% RH: sorption cycle 0 to 80% RH, reference weight at 0% RH
Description: Crystalline eravacycline bis-hydrochloride of the present invention and amorphous eravacycline bis-hydrochloride were both subjected to a gravimetric moisture sorption/desorption experiment using an SPSx-1μ moisture sorption analyzer (ProUmid, Ulm). The measurement cycles were started at ambient relative humidity (RH) of 20% and the RH was first decreased in 5% steps to 5% RH, in one step to 3% RH in a further step to 0% RH. Then RH was increased from 0% to 80% and decreased from 80 to 0% RH in 5% steps. Finally, the relative humidity was increased to ambient relative humidity of 20% in 3 steps of approximately 7% steps. The time per step was set to a minimum of 2 hours and a maximum of 6 hours. If an equilibrium condition with a constant mass of 0.01% within 1 hour was reached before the maximum time for all examined samples the sequential humidity step was applied before the maximum time of 6 hours. If no equilibrium was achieved the consecutive humidity step was applied after the maximum time of 6 hours. The temperature was (25±0.1)° C.

[3] = Comparative Example 2: chemical stability under accelerated stress conditions, HPLC at 254 nm; settings: dihydrochloride; for Area % (HPLC, 254 nm) after 40° C./75% RH for 19 days / Area % (HPLC, 254 nm) after 40° C./75% RH for 42 days: open stored in glass vials; for Area % (HPLC, 254 nm), initial sample: before stress
Description: [formula] mT=initial mass of eravacycline bis-hydrochloride tested in mg VT=consumption of volumetric solution for titration of eravacycline bis-hydrochloride in mL F=factor of the volumetric solution 36.46=molecular mass of hydrochloride in g/mol 0.1=molarity of the volumetric solution 100=conversion to % High Performance Liquid Chromatography Instrument: Agilent HP 1100 with Chemstation Column: YMC-Pack Pro C18 RS; 150*4.6 mm; 3 microm Solvent: A: 40 mmol amidosulfonic acid in water • B: 40 mmol amidosulfonic acid in water with 75% acetonitrile Gradient: […]
Injection volume: 5 microL Flow: 0.8 mL/min Oven temperature: 40° C. Wavelength: 254 nm
Crystalline eravacycline bis-hydrochloride of the present invention and amorphous eravacycline bis-hydrochloride were subjected to accelerated stress conditions of 40° C. and 75% relative humidity. The samples were open stored in glass vials and analyzed by high performance liquid chromatography at 254 nm using the method as described in the experimental section above.

[4] = listed as amorphous eravacycline 2HCl
[5] = listed as crystalline eravacycline 2HCl

| relative humidity at which the solid liquefies (deliquescence) [1] | hysteresis between the sorption and the desorption curve [2] | water content in the desorption curve at 40% relative humidity ([2]; 40% RH, desorption curve, FIG. 7) | water content in the sorption curve at 40% relative humidity ([2]; 40% RH, sorption curve, FIG. 7) | mass increase during the sorption cycle from 0 to 80% RH [2] | mass increase during the sorption cycle from 0 to 80% RH ([2]; listed as Amorphous eravacycline bis-hydrochloride) | Area % (HPLC, 254 nm) after 40° C./75% RH for 19 days [3, 4] | Area % (HPLC, 254 nm) after 40° C./75% RH for 42 days [3, 4] | Area % (HPLC, 254 nm), initial sample [3, 4] | water content at a relative humidity of 0% ([1]; 0% RH, gravimetric moisture sorption, 25° C.) | water content at a relative humidity of 90% ([1]; 90% RH, gravimetric moisture sorption, 25° C.) | behaviour when subjected to relative humidity of about 0 to 90% ([1]; relative humidity about 0 to 90% at 25.0±0.1° C.) | water content during the sorption and the desorption cycle at 40% relative humidity ([2]; 40% RH, sorption and desorption cycle, FIG. 6) | Area % (HPLC, 254 nm) after 40° C./75% RH for 19 days [3, 5] | Area % (HPLC, 254 nm) after 40° C./75% RH for 42 days [3, 5] | Area % (HPLC, 254 nm), initial sample [3, 5] | Compound |
| --- | --- | --- | --- | --- | --- | --- | --- | --- | --- | --- | --- | --- | --- | --- | --- | --- |
| 85% | significant hysteresis | 14.3% | about 8.9 weight % | about 26.1 weight % | about 26.1 weight % | 31.9 Area % | 30.3 Area % | 97.2 Area % | – | – | – | – | – | – | – | CN(C)[C@@H]1C(O)=C(C(N)=O)C(=O)[C@@]2(O)C(O)=C3C(=O)c4c(O)c(NC(=O)CN5CCCC5)cc(F)c4C[C@H]3C[C@@H]12 [amorphous eravacycline bis-hydrochloride, (4S,4aS,5aR,12aS)-4-(Dimethylamino)-7-fluoro-3,10,12,12a-tetrahydroxy-1,11-dioxo-9-[2(-pyrrolidin-1-yl)acetamido]-1,4,4a,5,5a,6,11,12a-octahydrotetracene-2-carboxamide dihydrochloride] |
| 95% | no significant hysteresis | – | – | – | – | – | – | – | about 0 weight % | about 20.1% | does not liquefy | about 13 weight % | 77.1 Area % | 73.8 Area % | 95.8 Area % | CN(C)[C@@H]1C(O)=C(C(N)=O)C(=O)[C@@]2(O)C(O)=C3C(=O)c4c(O)c(NC(=O)CN5CCCC5)cc(F)c4C[C@H]3C[C@@H]12 [crystalline eravacycline bis-hydrochloride] [(4S,4aS,5aR,12aS)-4-(Dimethylamino)-7-fluoro-3,10,12,12a-tetrahydroxy-1,11-dioxo-9-[2(-pyrrolidin-1-yl)acetamido]-1,4,4a,5,5a,6,11,12a-octahydrotetracene-2-carboxamide dihydrochloride] |
